Results from patent US20230365592A1 (Agios Pharmaceuticals, Inc., priority 2022, published 2023).

biological target: T1, human PAH with the R408W mutation (Homo sapiens, UniProt P00439, R408W); test: Cell Based Phenylalanine Flux Assay; settings: A375 cells expressing human R408W PAH; 24 hrs compound incubation; 13C-Tyrosine by LC-MS; average where tested multiple times; read-out: AC50;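 further: after compound treatment, cells received sepiapterin plus isotope-labelled Phenylalanine for 4 hours, then labelled Tyrosine in the medium was quantified, 10-point 2-fold dilution series run in duplicate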
T1 construct: expressed in transfected cells
T1 sequence (P00439 1-452 R408W): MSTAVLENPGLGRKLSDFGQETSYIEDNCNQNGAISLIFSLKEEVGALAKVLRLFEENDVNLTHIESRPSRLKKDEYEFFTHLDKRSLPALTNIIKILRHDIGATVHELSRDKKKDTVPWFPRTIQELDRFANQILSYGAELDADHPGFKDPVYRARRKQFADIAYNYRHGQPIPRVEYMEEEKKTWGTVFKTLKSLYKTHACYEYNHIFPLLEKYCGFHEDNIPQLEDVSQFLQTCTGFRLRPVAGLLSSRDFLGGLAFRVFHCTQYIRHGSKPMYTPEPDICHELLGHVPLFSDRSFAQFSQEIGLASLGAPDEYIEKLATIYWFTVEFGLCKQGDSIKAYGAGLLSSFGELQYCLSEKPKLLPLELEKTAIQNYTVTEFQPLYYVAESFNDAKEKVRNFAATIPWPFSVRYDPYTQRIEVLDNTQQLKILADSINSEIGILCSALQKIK

SMILES | AC50 [nM]
O=C(c1ccnn1C(F)(F)F)N1CCc2[nH]cnc2[C@H]1c1cc2ccccn2n1 [Example 716, (S)-(4-(pyrazolo[1,5-a]pyridin-2-yl)-6,7-dihydro-1H-imidazo[4,5-c]pyridin-5(4H)-yl)(1-(trifluoromethyl)-1H-pyrazol-5-yl)methanone] | < 500
O=C(c1ccnn1C(F)(F)F)N1CCc2[nH]cnc2[C@@H]1c1cc2ccccn2n1 [Example 717, (R)-(4-(pyrazolo[1,5-a]pyridin-2-yl)-6,7-dihydro-1H-imidazo[4,5-c]pyridin-5(4H)-yl)(1-(trifluoromethyl)-1H-pyrazol-5-yl)methanone] | 500 to 1000
Cn1ccc(-c2nnc(C(=O)N3CCc4[nH]cnc4[C@H]3c3cc4c(Cl)cccn4n3)o2)n1 [Example 718, (S)-(4-(4-chloropyrazolo[1,5-a]pyridin-2-yl)-6,7-dihydro-1H-imidazo[4,5-c]pyridin-5(4H)-yl)(5-(1-methyl-1H-pyrazol-3-yl)-1,3,4-oxadiazol-2-yl)methanone] | < 500
Cn1ccc(-c2nnc(C(=O)N3CCc4[nH]cnc4[C@@H]3c3cc4c(Cl)cccn4n3)o2)n1 [Example 719, (R)-(4-(4-chloropyrazolo[1,5-a]pyridin-2-yl)-6,7-dihydro-1H-imidazo[4,5-c]pyridin-5(4H)-yl)(5-(1-methyl-1H-pyrazol-3-yl)-1,3,4-oxadiazol-2-yl)methanone] | > 5000
Cn1cc(-c2nnc(C(=O)N3CCc4[nH]cnc4[C@H]3c3cc4c(F)cccn4n3)o2)cn1 [Example 728, (S)-(4-(4-fluoropyrazolo[1,5-a]pyridin-2-yl)-6,7-dihydro-1H-imidazo[4,5-c]pyridin-5(4H)-yl)(5-(1-methyl-1H-pyrazol-4-yl)-1,3,4-oxadiazol-2-yl)methanone] | < 500
Cn1ccc(-c2nnc(C(=O)N3CCc4[nH]cnc4[C@@H]3c3cc4c(F)cccn4n3)o2)n1 [Example 731, (R)-(4-(4-fluoropyrazolo[1,5-a]pyridin-2-yl)-6,7-dihydro-1H-imidazo[4,5-c]pyridin-5(4H)-yl)(5-(1-methyl-1H-pyrazol-3-yl)-1,3,4-oxadiazol-2-yl)methanone] | > 5000
O=C(c1nnc(-c2ccccn2)o1)N1CCc2[nH]cnc2[C@H]1c1cc2c(F)cccn2n1 [Example 733, (S)-(4-(4-fluoropyrazolo[1,5-a]pyridin-2-yl)-6,7-dihydro-1H-imidazo[4,5-c]pyridin-5(4H)-yl)(5-(pyridin-2-yl)-1,3,4-oxadiazol-2-yl)methanone] | < 500
O=C(c1nnc(-c2ccccn2)o1)N1CCc2[nH]cnc2[C@@H]1c1cc2c(Cl)cccn2n1 [Example 734, (R)-(4-(4-chloropyrazolo[1,5-a]pyridin-2-yl)-6,7-dihydro-1H-imidazo[4,5-c]pyridin-5(4H)-yl)(5-(pyridin-2-yl)-1,3,4-oxadiazol-2-yl)methanone] | > 5000
O=C(c1nnc(-c2ccccn2)o1)N1CCc2[nH]cnc2[C@H]1c1cc2c(Cl)cccn2n1 [Example 735, (S)-(4-(4-chloropyrazolo[1,5-a]pyridin-2-yl)-6,7-dihydro-1H-imidazo[4,5-c]pyridin-5(4H)-yl)(5-(pyridin-2-yl)-1,3,4-oxadiazol-2-yl)methanone] | < 500
Cc1cccn2nc([C@@H]3c4nc[nH]c4CCN3C(=O)c3oc([C@@H](C)O)nc3C(F)F)cc12 [Example 738, (4-(difluoromethyl)-2-((R)-1-hydroxyethyl)oxazol-5-yl)((S)-4-(4-methylpyrazolo[1,5-a]pyridin-2-yl)-6,7-dihydro-1H-imidazo[4,5-c]pyridin-5(4H)-yl)methanone] | < 500
Cc1cccn2nc([C@H]3c4nc[nH]c4CCN3C(=O)c3oc([C@@H](C)O)nc3C(F)F)cc12 [Example 739, (4-(difluoromethyl)-2-((R)-1-hydroxyethyl)oxazol-5-yl)((R)-4-(4-methylpyrazolo[1,5-a]pyridin-2-yl)-6,7-dihydro-1H-imidazo[4,5-c]pyridin-5(4H)-yl)methanone] | 1000 to 5000
Cc1cccn2nc([C@H]3c4nc[nH]c4CCN3C(=O)c3nnc(-c4ccccn4)o3)cc12 [Example 740, (R)-(4-(4-methylpyrazolo[1,5-a]pyridin-2-yl)-6,7-dihydro-1H-imidazo[4,5-c]pyridin-5(4H)-yl)(5-(pyridin-2-yl)-1,3,4-oxadiazol-2-yl)methanone] | > 5000
Cc1cccn2nc([C@@H]3c4nc[nH]c4CCN3C(=O)c3nnc(-c4ccccn4)o3)cc12 [Example 741, (S)-(4-(4-methylpyrazolo[1,5-a]pyridin-2-yl)-6,7-dihydro-1H-imidazo[4,5-c]pyridin-5(4H)-yl)(5-(pyridin-2-yl)-1,3,4-oxadiazol-2-yl)methanone] | < 500
Cc1cccn2nc([C@@H]3c4nc[nH]c4CCN3C(=O)c3nnc(-c4ccn(C)n4)o3)cc12 [Example 743, (S)-(5-(1-methyl-1H-pyrazol-3-yl)-1,3,4-oxadiazol-2-yl)(4-(4-methylpyrazolo[1,5-a]pyridin-2-yl)-6,7-dihydro-1H-imidazo[4,5-c]pyridin-5(4H)-yl)methanone] | < 500

The remaining lines, values ahead:

AC50 [nM] | SMILES
< 500 | CC(C)(O)c1nc(Cl)c(C(=O)N2CCc3[nH]cnc3[C@H]2c2cc3c(Cl)cccn3n2)o1 [Example 720, (S)-(4-chloro-2-(2-hydroxypropan-2-yl)oxazol-5-yl)(4-(4-chloropyrazolo[1,5-a]pyridin-2-yl)-6,7-dihydro-1H-imidazo[4,5-c]pyridin-5(4H)-yl)methanone]
> 5000 | CC(C)(O)c1nc(Cl)c(C(=O)N2CCc3[nH]cnc3[C@@H]2c2cc3c(Cl)cccn3n2)o1 [Example 721, (R)-(4-chloro-2-(2-hydroxypropan-2-yl)oxazol-5-yl)(4-(4-chloropyrazolo[1,5-a]pyridin-2-yl)-6,7-dihydro-1H-imidazo[4,5-c]pyridin-5(4H)-yl)methanone]
< 500 | CC(C)(O)c1nc(Br)c(C(=O)N2CCc3[nH]cnc3[C@H]2c2cc3c(Cl)cccn3n2)o1 [Example 722, (S)-(4-bromo-2-(2-hydroxypropan-2-yl)oxazol-5-yl)(4-(4-chloropyrazolo[1,5-a]pyridin-2-yl)-6,7-dihydro-1H-imidazo[4,5-c]pyridin-5(4H)-yl)methanone]
1000 to 5000 | CC(C)(O)c1nc(Br)c(C(=O)N2CCc3[nH]cnc3[C@@H]2c2cc3c(Cl)cccn3n2)o1 [Example 723, (R)-(4-bromo-2-(2-hydroxypropan-2-yl)oxazol-5-yl)(4-(4-chloropyrazolo[1,5-a]pyridin-2-yl)-6,7-dihydro-1H-imidazo[4,5-c]pyridin-5(4H)-yl)methanone]
< 500 | Cc1nc(C(C)(C)O)oc1C(=O)N1CCc2[nH]cnc2[C@H]1c1cc2c(Cl)cccn2n1 [Example 724, (S)-(4-(4-chloropyrazolo[1,5-a]pyridin-2-yl)-6,7-dihydro-1H-imidazo[4,5-c]pyridin-5(4H)-yl)(2-(2-hydroxypropan-2-yl)-4-methyloxazol-5-yl)methanone]
> 5000 | Cc1nc(C(C)(C)O)oc1C(=O)N1CCc2[nH]cnc2[C@@H]1c1cc2c(Cl)cccn2n1 [Example 725, (R)-(4-(4-chloropyrazolo[1,5-a]pyridin-2-yl)-6,7-dihydro-1H-imidazo[4,5-c]pyridin-5(4H)-yl)(2-(2-hydroxypropan-2-yl)-4-methyloxazol-5-yl)methanone]
500 to 1000 | Cc1nc([C@@H](C)O)oc1C(=O)N1CCc2[nH]cnc2[C@H]1c1cc2c(F)cccn2n1 [Example 726, ((S)-4-(4-fluoropyrazolo[1,5-a]pyridin-2-yl)-6,7-dihydro-1H-imidazo[4,5-c]pyridin-5(4H)-yl)(2-((R)-1-hydroxyethyl)-4-methyloxazol-5-yl)methanone]
1000 to 5000 | Cc1nc([C@@H](C)O)oc1C(=O)N1CCc2[nH]cnc2[C@@H]1c1cc2c(F)cccn2n1 [Example 727, ((R)-4-(4-fluoropyrazolo[1,5-a]pyridin-2-yl)-6,7-dihydro-1H-imidazo[4,5-c]pyridin-5(4H)-yl)(2-((R)-1-hydroxyethyl)-4-methyloxazol-5-yl)methanone]
< 500 | Cc1cccn2nc([C@@H]3c4nc[nH]c4CCN3C(=O)c3oc(C(C)(C)O)nc3C(F)F)cc12 [Example 736, (S)-(4-(difluoromethyl)-2-(2-hydroxypropan-2-yl)oxazol-5-yl)(4-(4-methylpyrazolo[1,5-a]pyridin-2-yl)-6,7-dihydro-1H-imidazo[4,5-c]pyridin-5(4H)-yl)methanone]
1000 to 5000 | Cc1cccn2nc([C@H]3c4nc[nH]c4CCN3C(=O)c3oc(C(C)(C)O)nc3C(F)F)cc12 [Example 737, (R)-(4-(difluoromethyl)-2-(2-hydroxypropan-2-yl)oxazol-5-yl)(4-(4-methylpyrazolo[1,5-a]pyridin-2-yl)-6,7-dihydro-1H-imidazo[4,5-c]pyridin-5(4H)-yl)methanone]
1000 to 5000 | CC(C)(O)c1nc(C(F)(F)F)c(C(=O)N2CCc3[nH]cnc3[C@@H]2c2cc3c(F)cccn3n2)o1 [Example 745, (R)-(4-(4-fluoropyrazolo[1,5-a]pyridin-2-yl)-6,7-dihydro-1H-imidazo[4,5-c]pyridin-5(4H)-yl)(2-(2-hydroxypropan-2-yl)-4-(trifluoromethyl)oxazol-5-yl)methanone]
< 500 | CC(C)(O)c1nc(Br)c(C(=O)N2CCc3[nH]cnc3[C@H]2c2cc3c(F)cccn3n2)o1 [Example 746, (S)-(4-bromo-2-(2-hydroxypropan-2-yl)oxazol-5-yl)(4-(4-fluoropyrazolo[1,5-a]pyridin-2-yl)-6,7-dihydro-1H-imidazo[4,5-c]pyridin-5(4H)-yl)methanone]
